Data set [1] concerns the target T1, human Kv3.1 channels (hKv3.1) (Homo sapiens, UniProt P48547).
T1 construct: expressed in transfected cells; host or cells: CHO/Gam/E1A-clone22 (CGE22) cells, CHO-K1-derived, transduced with BacMam pFBM/human Kv3.1
T1 sequence (P48547 1-511): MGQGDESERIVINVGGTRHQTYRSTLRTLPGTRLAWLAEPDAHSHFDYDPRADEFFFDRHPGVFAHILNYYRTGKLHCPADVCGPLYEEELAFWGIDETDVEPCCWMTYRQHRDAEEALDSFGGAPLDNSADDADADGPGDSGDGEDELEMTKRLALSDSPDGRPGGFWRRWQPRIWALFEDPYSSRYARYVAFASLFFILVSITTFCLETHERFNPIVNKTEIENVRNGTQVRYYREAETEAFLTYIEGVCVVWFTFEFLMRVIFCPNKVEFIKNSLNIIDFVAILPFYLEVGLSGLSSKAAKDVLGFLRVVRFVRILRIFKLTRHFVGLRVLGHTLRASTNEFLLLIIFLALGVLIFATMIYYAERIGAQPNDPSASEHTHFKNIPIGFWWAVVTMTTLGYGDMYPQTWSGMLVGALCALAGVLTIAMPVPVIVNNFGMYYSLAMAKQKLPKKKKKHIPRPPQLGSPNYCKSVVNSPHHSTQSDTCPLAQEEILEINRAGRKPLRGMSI
In words: IonWorks Quattro whole-cell current potentiation assay, hKv3.1 (Biological Example 1). The format is cell-based. The following applies: recombinant cell assay, -15 mV voltage step; positive modulator = at least 20% of effect of 50 microM reference compound. The text has this: (§1) The ability of the compound of the invention to modulate the voltage-gated potassium channel subtypes Kv3.2 or Kv3.1 may be determined using the following assay. Analogous methods may be used to investigate the ability of the compound of the invention to modulate other channel subtypes, including Kv3.3 and Kv3.4.
To assess compound effects on human Kv3.1 channels (hKv3.1), CHO/Gam/E1A-clone22 alias CGE22 cells were transduced using a hKv3.1 BacMam reagent. This cell line was designed to be an improved CHO-K1-based host for enhanced recombinant protein expression as compared to wild type CHO-K1.
The cell line was generated following the transduction of CHO-K1 cells with a BacMam virus expressing the Adenovirus-Gam1 protein and selection with Geneticin-G418, to generate a stable cell line, CHO/Gam-A3. […]
(§2) Experiments were conducted at room temperature using IonWorks Quattro™ planar array electrophysiology technology (Molecular Devices Corp.) with PatchPlate™ PPC. […] Planar electrode hole resistances(Rp) were determined by applying a 10 mV voltage step across each well. […] Test pulses protocol may be performed in the absence (pre-read) and presence (post-read) of the test compound. Pre- and post-reads may be separated by the compound addition followed by a 3 minute incubation. […]
For orientation: In patch-clamp work, channel activity is measured electrically.

Data set [2] has as its target T2, human Kv3.2 channels (hKv3.2) (Homo sapiens, UniProt Q96PR1).
T2 construct: expressed in transfected cells
T2 sequence (Q96PR1 1-638): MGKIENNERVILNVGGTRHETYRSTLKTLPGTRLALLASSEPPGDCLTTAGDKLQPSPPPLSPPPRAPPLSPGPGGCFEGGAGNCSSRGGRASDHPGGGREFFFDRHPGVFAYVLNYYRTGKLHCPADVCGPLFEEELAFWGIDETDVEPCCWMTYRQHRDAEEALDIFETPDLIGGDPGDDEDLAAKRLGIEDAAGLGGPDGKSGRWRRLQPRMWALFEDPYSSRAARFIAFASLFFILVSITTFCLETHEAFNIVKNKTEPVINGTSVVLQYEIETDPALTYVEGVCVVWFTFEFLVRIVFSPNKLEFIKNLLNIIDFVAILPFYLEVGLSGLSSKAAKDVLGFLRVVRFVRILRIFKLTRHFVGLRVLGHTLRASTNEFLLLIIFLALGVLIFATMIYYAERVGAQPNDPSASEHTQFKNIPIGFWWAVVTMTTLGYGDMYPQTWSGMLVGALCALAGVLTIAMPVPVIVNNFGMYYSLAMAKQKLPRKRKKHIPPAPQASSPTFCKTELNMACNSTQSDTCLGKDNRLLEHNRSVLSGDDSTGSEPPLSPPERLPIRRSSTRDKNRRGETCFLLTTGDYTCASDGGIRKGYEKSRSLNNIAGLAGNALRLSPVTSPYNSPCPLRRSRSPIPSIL
Put plainly: IonWorks Quattro whole-cell current potentiation assay, hKv3.2 (Biological Example 1). The following applies: recombinant cell assay, -15 mV voltage step; positive modulator = at least 20% of effect of 50 microM reference compound. In kind it is cell-based.
Excerpt: as §1
To assess compound effects on human Kv3.2 channels (hKv3.2), a stable cell line expressing hKv3.2 was created by transfecting Chinese Hamster Ovary (CHO)-K1 cells with a pClH5-hKv3.2 vector. Cells were cultured in DMEM/F12 medium supplemented by 10% Foetal Bovine Serum, 1× non-essential amino acids (Invitrogen) and 500 ug/ml of Hygromycin-B (Invitrogen). Cells were grown and maintained at 37° C. in a humidified environment containing 5% CO2 in air.
The day of the experiment, cells were removed from the incubator and the culture medium removed. […]
as §2

Data set [3] can be described thus: Determination of in vivo pharmacokinetic parameters (Biological Example 3). The conditions noted are these: for Tmax: Median. Set-up: species or system rat. The method, then:
[…] After oral administration, blood samples are collected under deep Isofluorane anesthesia from the portal vein and heart of each rat (1 rat per time point). After intravenous administration, serial blood samples are collected from the lateral tail vein of each rat. A further group of rats (n=1 per test compound) receive a single intravenous administration of the PgP transport inhibitor, Elacridar (3 mg/kg) shortly before the oral administration of the test compound at 1 mg/kg, as above. Blood and brain samples ar collected at a single timepoint of 0.5 h after dose administration for these animals. In all cases, blood samples are collected into potassium EDTA tubes.
Blood and brain samples can be assayed for test compound concentration using a method based on protein precipitation with acetonitrile followed by HPLC/MS-MS analysis with an optimized analytical method.
The concentrations of test compound in blood (expressed as ng/ml) and brain (expressed as ng/g) at the different time points following either oral or intravenous dosing are analysed using a non-compartmental pharmacokinetic model using WinNonLin Professional version 4.1. The following parameters are derived:
Intravenous dosing: Maximum concentration over time (Cmax), integrated concentration over time (AUC), clearance (Clb), volume of distribution (Vss) and half-life (t1/2).
Oral dosing: Cmax, time of maximum concentration (Tmax), AUC, bioavailability (F %), fraction absorbed (Fa %), blood to brain ratio (AUC BB), and Fold-change in AUC BB in the presence of Elacridar.

Setting [4] is: male, rat, whole blood, Blood, IV 1 mg/kg, Mean.
Where [5] appears, read: male, rat, whole blood, Blood, PO 3 mg/kg, Mean.

The structures appear in SMILES notation.

For `CC[C@H]1NC(=O)N(c2ccc(Oc3ccc(C)c4c3C3(CC3)CO4)cn2)C1=O` [compound of the invention], in data set [1], the “modulation of Kv3.1 channels (whole-cell currents)” value is recorded as “positive modulators”. The “modulation of Kv3.2 channels (whole-cell currents)” value in data set [2] was “positive modulators”. Further, the “Bioavailability (%) Using AUCinf” value in data set [3] (Blood, PO 3 mg/kg vs IV 1 mg/kg) is reported as 138%. Besides, the availability result in data set [3] (in vivo pharmacokinetics) is recorded as “good availability”. Also, in data set [3] (setting [4]), the AUC(0-inf) – broadly, total exposure, with the tail of the curve extrapolated – was 353 ng·h/mL; the peak level (Cmax) was 904 ng/mL; the clearance (commonly a measure of how efficiently the substance is removed, as volume per time) was determined as 47.6 mL/min/kg; the half-life (usually the time in which the quantity being followed falls by half) is 15.6 min. The Vd in data set [3] (male, rat, whole blood, Blood, IV 1 mg/kg, Mean, read-out: Vdss) came to 1 L/kg. In data set [3] (male, rat, whole blood, Blood, IV 1 mg/kg), the Tmax (commonly the time from dosing to the highest level) is 4.98 min. In data set [3] (setting [5]), the AUC(0-inf) amounted to 1440 ng·h/mL; the Cmax – broadly, the highest concentration seen after dosing – amounted to 1660 ng/mL; the half-life is 24.6 min. Besides, the Tmax in data set [3] (male, rat, whole blood, Blood, PO 3 mg/kg) stood at 15 min.

The record behind these values is US20200039970A1, “HYDANTOIN MODULATORS OF KV3 CHANNELS” (Autifony Therapeutics Limited, priority 2016, published 2020).
